Experimental data: patent US11208446B2, “Agents and methods for treating CBP-dependent cancers” (priority 2016, dated 2021)

What was measured:
[1] = system: MYB-dependent gene expression; assay: RNA-seq gene expression after peptide treatment; assay type: cell-based, human
MV411 cells [2] = assay: Flow cytometric analysis of apoptosis (Annexin-V); assay type: cell-based, human; conditions: 20 μM, 24 hours
Protocol: Flow cytometric analysis of Apoptosis. Cells were resuspended to a concentration of 1×10^6 cells were plated in triplicate in a 12-well tissue culture plate. For assessment of annexin V staining, cells were washed with PBS and then resuspended in PBS with Annexin V-APC (BioLegend) and propidium iodide at a dilution of 1:1000. For intracellular detection of cleaved caspase 3, cells were fixed and permeabilized using the BD Cytofix/Cytoperm Fixation/Permeabilization solution according to the manufacturer's instructions (BD Biosciences. Cells were then stained using the Alexa Fluor 647-conjugated anti-active caspase-3 (BD Biosciences) at a dilution of 1:50. Cells were incubated for 30 minutes room temperature in the dark, washed, and then analyzed using the BD LSRFortessa cell analyzer.

MV411 cells [3] = assay: CellTiter Glo viability of MV411 cells with ectopic BCL2 expression; assay type: cell-based, human; conditions: MV411 cells with MSCV-Ires-GFP BCL2 vector
[4] = system: MOLM13, MV411, ML2, and HL60 cell lines; assay: Cell viability, live cell count by Trypan blue exclusion; assay type: cell-based, human; conditions: 10 μM and 20 μM every 48 hours for 6 days
Protocol: Cell culture. The human AML lines MV411, MOLM13, ML2, and HL60 were obtained from the American Type Culture Collection (ATCC, Manassas, Va., USA). Umbilical cord blood was obtained from the New York Blood Center. The identity of all cell lines was verified by STR analysis (Genetica DNA Laboratories, Burlington, N.C., USA) and absence of Mycoplasma sp. contamination was determined using Lonza MycoAlert (Lonza Walkersville, Inc., Walkersville, Md., USA). Cell lines were cultured in 5% CO2 in a humidified atmosphere at 37° C. in RPMI medium supplemented with 10% fetal bovine serum (FBS) and antibiotics (100 U/ml penicillin and 100 μg/ml streptomycin). Cell viability analysis. Cells were resuspended and plated at a concentration of 2×10^5 cells in 200 μL in 96-well tissue culture plates. Media with peptides was replaced every 48 hours. To assess the number of viable cells, cells were resuspended in PBS and 10 μL mixed in a 1:1 ratio with 0.4% Trypan Blue (Thermo Fisher) and counted using a hematocytometer (Hausser Scientific, Horsham, Pa., USA). To assess viability using an ATP-based assay, cell viability was assessed using the CellTiter-Glo Luminescent Viability assay, according to the manufacturer's instructions (Promega). Luminescence was recorded using the Infinite M1000Pro plate reader using integration time of 250 milliseconds (Tecan).

[5] = system: H3K27Ac-driven oncogenic enhancers; assay: ChIP-seq of H3K27Ac enhancers in AML cells; assay type: cell-based, human
Protocol: Chromatin immunoprecipitation and sequencing (ChIP-seq). Briefly, cells were fixed in 1% formalin in phosphate-buffered saline (PBS) for 10 minutes at room temperature. Glycine (125 mM final concentration) and Tris-HCl pH 8 (100 mM final concentration) was added to the cells and cells were washed twice in ice-cold PBS and resuspended in sodium dodecyl sulfate (SDS) lysis buffer (1% SDS, 10 mM EDTA, 50 mM Tris-HCl, pH 8.1). Lysates were sonicated using the Covaris […] adaptive focused sonicator to obtain 100-500 bp chromatin fragments (Covaris, Woburn, Calif.). Lysates containing sheared chromatin fragments were resuspended in 0.01% SDS, 1.1% Triton-X100, 1.2 mM EDTA, 16.7 mM Tris-HCl, pH 8.1, 167 mM NaCl. Lysates and antibody-coupled beads were incubated over night at 4° C. Precipitates were washed sequentially with Mixed Micelle Wash Buffer (15 ml 5M NaCl-150 mM Final, 10 ml 1M Tris-Cl pH 8.1, 5 ml 0.5M EDTA, pH 8.0, 40 ml 65% w/v sucrose, 1 ml 10% NaN3, 25 ml 20% Triton X-100, 10 ml 10% SDS, Add dH2O to 500 ml), LiCl washing solution (0.5% deoxycholic acid, 1 mM EDTA, 250 mM LiCl, 0.5% NP-40, 10 mM Tris-Cl pH 8.0, 0.2% NaN3) and then TBS buffer (20 mM Tris-Cl pH 7.4, 150 mM NaCl). Elution performed in elution buffer (1% SDS, 0.1 M NaHCO3). […] Libraries were sequenced on the Illumina HiSeq 2500 instruments, with 30 million 2×50 bp paired reads.

[6] = system: primary MLL-rearranged AML; assay: Primary patient derived xenograft, hCD45 staining of bone marrow; assay type: in vivo, NSG mice; conditions: 25 mg/kg daily intraperitoneal, 21 days
Protocol: Mouse studies. All mouse experiments were carried out in accordance with institutional animal protocols. Two hundred thousand primary AML MLL-rearranged leukemia cells were suspended in […] of PBS and transplanted via tail vein injection into 8-week-old sublethally irradiation (200 rad) female NOD.Cg-Prkdc(scid)Il2rg(tm1Wjl)/SzJ mice (The Jackson Laboratory, Bar Harbor, Me., USA). Recipient mice were maintained on antibiotic supplementation in chow (0.025% trimethoprim, 0.124% sulfamethoxazole, Sulfatrim). Three days after transplant, mice were randomly assigned to experimental treatment groups. […]

[7] = system: primary patient-derived MLL-rearranged leukemia cells; assay: Primary patient derived xenograft, survival analysis; assay type: in vivo, NSG mice; conditions: 50 mg/kg daily intraperitoneal, days 3-17, log-rank p=0.0038
Protocol: Mouse studies. All mouse experiments were carried out in accordance with institutional animal protocols. Two hundred thousand primary AML MLL-rearranged leukemia cells were suspended in […] of PBS and transplanted via tail vein injection into 8-week-old sublethally irradiation (200 rad) female NOD.Cg-Prkdc(scid)Il2rg(tm1Wjl)/SzJ mice (The Jackson Laboratory, Bar Harbor, Me., USA). Recipient mice were maintained on antibiotic supplementation in chow (0.025% trimethoprim, 0.124% sulfamethoxazole, Sulfatrim). Three days after transplant, mice were randomly assigned to experimental treatment groups. MYBMIM peptide suspended in PBS was administered daily through intraperitoneal injection at a daily dose of 50 mg/kg. Mice were treated from days 3-17 of this study for a total of 14 days and then monitored daily with clinical examination for survival analysis.
Statistical Analysis. For comparisons between two sample sets, statistical analysis of means was performed using 2-tailed, unpaired Student's t-tests. Survival analysis was done using the Kaplan-Meier method, as assessed using a log-rank test. For gene expression analysis, statistical significance was assessed using paired t-tests.

Structure (SMILES): CC[C@@H](C)[C@@H](NC(=O)[C@@H](CCCCN)NC(=O)[C@@H](CCC(=O)O)NC(=O)[C@@H](CC(C)C)NC(=O)[C@@H](CCC(=O)O)NC(=O)[C@@H](CC(C)C)NC(=O)[C@@H](CC(C)C)NC(=O)[C@@H](CC(C)C)NC(=O)[C@@H](CCSC)NC(=O)[C@@H](CO)NC(=O)[C@H](NC(=O)[C@@H](CCC(=O)O)NC(=O)[C@@H](CC(N)=O)NC(=O)[C@@H](CCC(=O)O)NC(=O)[C@@H](CC(C)C)NC(=O)[C@@H](CCCCN)NC(C)=O)[C@H](C)O)C(=O)N[C@H](CCCNC(=N)N)C(=O)N[C@H](CCCCN)C(=O)NCC(=O)NCC(=O)N[C@H](CCCNC(=N)N)C(=O)N[C@H](CCCNC(=N)N)C(=O)N[C@H](CCCNC(=N)N)C(=O)N[C@H](CCC(N)=O)C(=O)N[C@H](CCCNC(=N)N)C(=O)N[C@H](CCCNC(=N)N)C(=O)N[C@H](CCCCN)C(=O)N[C@H](CCCCN)C(=O)N[C@H](CCCNC(=N)N)C(=O)NCC(=O)N[C@H](Cc1ccc(O)cc1)C(N)=O [MYBMIM]
- MYC and BCL2 expression (volcano plot) ([1]; MV411 cells, MYBMIM vs control): significantly downregulated
- MYB-dependent gene expression (RNA-seq) ([1]; human AML cells, 6 hours, 20 μM, vs TG3 and control): significant down-regulation
- apoptosis (Annexin-V staining) (MV411 cells [2]): induction of apoptosis
- rescue of peptide-induced apoptosis by ectopic Bcl2 expression (cell viability) (MV411 cells [3]): partial rescue
- AML cell death (live cells on Day 6) [4]: induction of AML cell death
- H3K27Ac-driven oncogenic enhancers [5]: obliteration
- leukemia burden in bone marrow (hCD45 staining) [6]: decrease in the leukemia burden
- survival of mice (Kaplan-Meier) [7]: prolongs survival
- survival of mice (Kaplan-Meier) ([7]; listed as SEQ ID NO:1): impeded leukemia progression and extended survival
